Results: BindingDB's records for patent US20250320228 (Merck Patent, 2025)

biological target: Mitogen-activated protein kinase kinase kinase kinase 1 (Homo sapiens, UniProt Q92918); assay: HPK1 Kinase Assay
Experimental: A recombinant fusion protein consisting of full-length human HPK1 (MAP4K1) with an N-terminal Glutatione S-transferase (GST) tag was produced in insect cells Sf21 using the baculovirus expression system. GST-HPK1 protein was purified from cell lysates by glutathione Sepharose affinity chromatography. The assay is run in three continuous steps: 1) the HPK1 enzymatic kinase reaction, 2) an ATP depletion, and 3) the ADP detection, the steps 2 and 3 are performed with ADP-Glo™ Kinase Assay kit from Promega (V9101). Test compounds were prepared by 10-point serial dilution in dimethyl sulfoxide (DMSO) and 100 nL of each dilution was spotted onto a 384-well Optiplate (Perkin Elmer and Cat #6007299) by Labcyte Echo. 5 μL kinase reaction buffer (0.02% Brij-35, 2 mM DTT, 50 mM HEPES pH 7.5, MgCl2 10 mM, BSA 0.01% and β-glycerophosphate 12.5 mM) containing HPK1 (3.2 nM) enzyme was transferred to each well and incubated for 15 minutes at room temperature at 60% humidity. The enzymatic reaction was started by adding 5 μl of Start-Mix (10 μM ATP and 3.235 μM MBP). After 120 minutes, the reaction was stopped by adding 5 μL of ADP-Glo reagent (Promega, V9101) and incubating for 40 min. in the dark at 23° C. To determine the level of ADP, 10 μl ADP-Glo Detection solution was added and incubated for 1 hour at 23° C. in the dark. The plate was transferred to a Perkin Elmer EnVision (2104 Multilabel Reader) for luminescence detection and percent inhibition activity and IC50 value were determined using Genedata Screener.

Mitogen-activated protein kinase kinase kinase kinase 1, sequence (Q92918 whole entry, the tested form may be a part): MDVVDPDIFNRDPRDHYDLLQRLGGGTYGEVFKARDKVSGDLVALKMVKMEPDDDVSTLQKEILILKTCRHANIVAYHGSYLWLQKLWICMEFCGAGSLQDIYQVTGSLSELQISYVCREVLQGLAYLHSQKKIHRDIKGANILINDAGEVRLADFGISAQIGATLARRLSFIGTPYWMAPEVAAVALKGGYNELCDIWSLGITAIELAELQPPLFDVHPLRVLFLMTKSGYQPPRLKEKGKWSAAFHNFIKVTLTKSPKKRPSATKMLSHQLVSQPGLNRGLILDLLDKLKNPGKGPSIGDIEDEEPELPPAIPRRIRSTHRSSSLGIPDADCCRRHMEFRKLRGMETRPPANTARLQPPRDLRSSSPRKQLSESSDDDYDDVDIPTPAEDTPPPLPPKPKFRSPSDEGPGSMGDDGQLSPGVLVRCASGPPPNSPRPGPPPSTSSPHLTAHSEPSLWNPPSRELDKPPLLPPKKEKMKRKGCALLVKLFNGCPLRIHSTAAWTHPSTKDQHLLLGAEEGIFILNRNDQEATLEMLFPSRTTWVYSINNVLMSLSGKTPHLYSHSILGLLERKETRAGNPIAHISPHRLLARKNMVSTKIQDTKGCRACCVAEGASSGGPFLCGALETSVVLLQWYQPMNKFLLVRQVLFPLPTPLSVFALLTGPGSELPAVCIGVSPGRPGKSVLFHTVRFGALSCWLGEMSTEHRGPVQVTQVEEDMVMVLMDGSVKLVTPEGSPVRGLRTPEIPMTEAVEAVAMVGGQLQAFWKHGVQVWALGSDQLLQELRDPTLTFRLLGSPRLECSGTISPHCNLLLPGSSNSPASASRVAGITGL

Row | SMILES | IC50 [nM]
1 | NC(=O)c1cc(-c2cc(F)c(OCC3(O)CCC3)c(F)c2)nc2c(N[C@H]3CCCNC3)ncnc12 [US20250320228, Example 39] | < 100
2 | NC(=O)c1cc(-c2ccc(CN3CCOCC3)cc2)nc2c(NC34CNCC3C4)ncnc12 (stereo not given) [US20250320228, Example 20] | < 100
3 | NC(=O)c1cc(-c2ccc(OC(F)(F)F)cc2)nc2c(N[C@@H]3CNC[C@H](F)C3)ncnc12 [US20250320228, Example 71] | < 100
4 | NC(=O)c1cc(-c2ccc(CN3CCOC[C@H]3C(F)(F)F)cc2)nc2c(N[C@H]3CCCNC3)ncnc12 [US20250320228, Example 15] | < 100

The remaining lines, values ahead:

Row | IC50 [nM] | SMILES
5 | < 100 | CN1CCc2cc(-c3cc(C(N)=O)c4ncnc(N[C@H]5CCCNC5)c4n3)nn2CC1=O [US20250320228, Example 45]
6 | < 100 | NC(=O)c1cc(-c2ccc(CN3CCOCC3)cc2)nc2c(N[C@@H]3CNC[C@H](F)C3)ncnc12 [US20250320228, Example 26]
7 | < 100 | N#C[C@H]1COCCN1Cc1ccc(-c2cc(C(N)=O)c3ncnc(N[C@H]4CCCNC4)c3n2)cc1 [US20250320228, Example 14]
8 | > 1000 | COCc1n[nH]c(-c2cc(C(N)=O)c3ncnc(N[C@H]4CCCNC4)c3n2)n1 [US20250320228, Example 13]
9 | > 1000 | NC(=O)c1cc(-c2ccc(CN3CCOCC3)cc2)nc2c(N3CC[C@@H](F)[C@H](N)C3)ncnc12 [US20250320228, Example 22]
10 | < 100 | C[C@@H](N)CNc1ncnc2c(C(N)=O)cc(-c3ccc(CN4CCOCC4)cc3)nc12 [US20250320228, Example 25]
